The series in a line: xn = mol fraction of the nth substance listed. The settings on record: 298.15 K, Ring tensiometer.

Drawing on the NIST ThermoML archive (doi:10.1021/je400004j), this text covers surface tension liquid-gas for twelve molecules.

± gives the expanded uncertainty stated by the source.

As a reminder, the surface tension liquid-gas is the force per length acting along the surface.

In the case of `COP(=O)([O-])OC.Cn1cc[n+](C)c1` [1,3-dimethylimidazolium dimethylphosphate] + O, the surface tension liquid-gas runs as follows: (x1 = 0.02) 67 ± 0.9 mN/m; (x1 = 0.04) 64.2 ± 0.9 mN/m; (x1 = 0.08) 59.5 ± 0.8 mN/m; (x1 = 0.1) 55.7 ± 0.8 mN/m; (x1 = 0.12) 53.6 ± 0.7 mN/m; (x1 = 0.14) 52.2 ± 0.7 mN/m. The surface tension liquid-gas reads like this: (x1 = 0.2) 51.8 ± 0.7 mN/m; (x1 = 0.3) 50.6 ± 0.7 mN/m; (x1 = 0.4) 50 ± 0.7 mN/m; (x1 = 0.5) 49.8 ± 0.7 mN/m; (x1 = 0.6) 49.3 ± 0.7 mN/m; (x1 = 0.7) 49.1 ± 0.7 mN/m. Further, the surface tension liquid-gas was 48.9 ± 0.7 mN/m (x1 = 0.8), 48.6 ± 0.6 mN/m (x1 = 0.9) and 48.4 ± 0.6 mN/m (x1 = 1).
For `CCCCn1cc[n+](CC)c1.CCOP(=O)([O-])OCC` [1-butyl-3-ethyl-1H-imidazol-3-ium diethyl phosphate] + CCO, the surface tension liquid-gas runs as follows: (x1 = 0.1) 22.6 ± 0.3 mN/m; (x1 = 0.2) 23.6 ± 0.4 mN/m; (x1 = 0.3) 24.7 ± 0.4 mN/m; (x1 = 0.4) 26.1 ± 0.4 mN/m; (x1 = 0.5) 27.6 ± 0.4 mN/m; (x1 = 0.6) 28.5 ± 0.4 mN/m. The surface tension liquid-gas (x1 = 0.7) came to 29.5 ± 0.4 mN/m, the surface tension liquid-gas (x1 = 0.8) came to 30.5 ± 0.4 mN/m, the surface tension liquid-gas (x1 = 0.9) is 31.4 ± 0.4 mN/m and the surface tension liquid-gas (x1 = 1) was 32.2 ± 0.5 mN/m.
`CCCCn1cc[n+](CC)c1.CCOP(=O)([O-])OCC` [1-butyl-3-ethyl-1H-imidazol-3-ium diethyl phosphate] + CO: the surface tension liquid-gas by setting is: (x1 = 0.1) 26.1 ± 0.4 mN/m; (x1 = 0.2) 28.4 ± 0.4 mN/m; (x1 = 0.3) 29.8 ± 0.4 mN/m; (x1 = 0.4) 30.6 ± 0.4 mN/m; (x1 = 0.5) 30.9 ± 0.4 mN/m; (x1 = 0.6) 31.1 ± 0.4 mN/m. The surface tension liquid-gas is reported as 31.4 ± 0.4 mN/m (x1 = 0.7), 32.3 ± 0.5 mN/m (x1 = 0.8), 32.2 ± 0.5 mN/m (x1 = 0.9) and 32.2 ± 0.5 mN/m (x1 = 1).
Take `CCCCn1cc[n+](CC)c1.CCOP(=O)([O-])OCC` [1-butyl-3-ethyl-1H-imidazol-3-ium diethyl phosphate] + O: the surface tension liquid-gas by setting is: (x1 = 0.02) 47.4 ± 1.6 mN/m; (x1 = 0.04) 42.4 ± 0.6 mN/m; (x1 = 0.08) 37.8 ± 0.6 mN/m; (x1 = 0.1) 35.9 ± 0.5 mN/m; (x1 = 0.12) 35.5 ± 0.5 mN/m; (x1 = 0.14) 35 ± 0.5 mN/m. Besides, the surface tension liquid-gas runs as follows: (x1 = 0.2) 33.1 ± 0.5 mN/m; (x1 = 0.3) 32.9 ± 0.5 mN/m; (x1 = 0.4) 32.8 ± 0.5 mN/m; (x1 = 0.5) 32.6 ± 0.5 mN/m; (x1 = 0.6) 32.5 ± 0.5 mN/m; (x1 = 0.7) 32.3 ± 0.5 mN/m. In addition, the surface tension liquid-gas came to 32.3 ± 0.5 mN/m (x1 = 0.8), 32.2 ± 0.5 mN/m (x1 = 0.9) and 32.2 ± 0.5 mN/m (x1 = 1).
For the molecule `CCCCn1cc[n+](C)c1.COP(=O)([O-])OC` [1-butyl-3-methyl-1H-imidazolium dimethylphosphate] + CCO, the surface tension liquid-gas (x1 = 0.1) is given as 22.8 ± 0.3 mN/m; the surface tension liquid-gas (x1 = 0.2) came to 23.6 ± 0.4 mN/m; the surface tension liquid-gas (x1 = 0.3) was 25 ± 0.4 mN/m; the surface tension liquid-gas (x1 = 0.4) is recorded as 26.9 ± 0.4 mN/m; the surface tension liquid-gas (x1 = 0.5) stood at 28.5 ± 0.4 mN/m; the surface tension liquid-gas (x1 = 0.6) is on record as 30.5 ± 0.4 mN/m. The surface tension liquid-gas stood at 32.3 ± 0.5 mN/m (x1 = 0.7), 34 ± 0.5 mN/m (x1 = 0.8), 36 ± 0.5 mN/m (x1 = 0.9) and 38 ± 0.5 mN/m (x1 = 1).
With `CCCCn1cc[n+](C)c1.COP(=O)([O-])OC` [1-butyl-3-methyl-1H-imidazolium dimethylphosphate] + CO, the surface tension liquid-gas (x1 = 0.1) is listed as 26.5 ± 0.4 mN/m; the surface tension liquid-gas (x1 = 0.2) is reported as 29.2 ± 0.4 mN/m; the surface tension liquid-gas (x1 = 0.3) is reported as 30.8 ± 0.4 mN/m; the surface tension liquid-gas (x1 = 0.4) is reported as 32.3 ± 0.5 mN/m; the surface tension liquid-gas (x1 = 0.5) worked out at 33.8 ± 0.5 mN/m; the surface tension liquid-gas (x1 = 0.6) is 35.1 ± 0.5 mN/m. The surface tension liquid-gas by setting is: (x1 = 0.7) 35.9 ± 0.5 mN/m; (x1 = 0.8) 38 ± 0.5 mN/m; (x1 = 0.9) 38.1 ± 0.5 mN/m; (x1 = 1) 38 ± 0.5 mN/m.
Take `CCCCn1cc[n+](C)c1.COP(=O)([O-])OC` [1-butyl-3-methyl-1H-imidazolium dimethylphosphate] + O: the surface tension liquid-gas stood at 42.1 ± 0.6 mN/m (x1 = 0.1); 40.9 ± 0.6 mN/m (x1 = 0.2); 40.2 ± 0.5 mN/m (x1 = 0.3); 39.4 ± 0.5 mN/m (x1 = 0.4); 38.8 ± 0.5 mN/m (x1 = 0.5); 38.3 ± 0.5 mN/m (x1 = 0.6). Further, the surface tension liquid-gas (x1 = 0.7) is 38.2 ± 0.5 mN/m, the surface tension liquid-gas (x1 = 0.8) is given as 38 ± 0.5 mN/m, the surface tension liquid-gas (x1 = 0.9) stood at 38.1 ± 0.5 mN/m and the surface tension liquid-gas (x1 = 1) is reported as 38 ± 0.5 mN/m.
Regarding `CCCCOP(=O)([O-])OCCCC.CCCCn1cc[n+](C)c1` [1-butyl-3-methylimidazolium dibutyl phosphate] + CCO, the surface tension liquid-gas was 22.5 ± 0.3 mN/m (x1 = 0.1); 23.5 ± 0.4 mN/m (x1 = 0.2); 24.5 ± 0.4 mN/m (x1 = 0.3); 25.9 ± 0.4 mN/m (x1 = 0.4); 26.6 ± 0.4 mN/m (x1 = 0.5); 27.3 ± 0.4 mN/m (x1 = 0.6). For the same molecule, the surface tension liquid-gas is, setting by setting: (x1 = 0.7) 27.8 ± 0.4 mN/m; (x1 = 0.8) 28.3 ± 0.4 mN/m; (x1 = 0.9) 28.8 ± 0.4 mN/m; (x1 = 1) 29.4 ± 0.4 mN/m.
Turning to `CCCCOP(=O)([O-])OCCCC.CCCCn1cc[n+](C)c1` [1-butyl-3-methylimidazolium dibutyl phosphate] + CO, the surface tension liquid-gas is, setting by setting: (x1 = 0.1) 26.4 ± 0.4 mN/m; (x1 = 0.2) 27.5 ± 0.4 mN/m; (x1 = 0.3) 28.1 ± 0.4 mN/m; (x1 = 0.4) 28.5 ± 0.4 mN/m; (x1 = 0.5) 28.8 ± 0.4 mN/m; (x1 = 0.6) 28.9 ± 0.4 mN/m. Further, the surface tension liquid-gas is 29.1 ± 0.4 mN/m (x1 = 0.7), 29.4 ± 0.4 mN/m (x1 = 0.8), 29.5 ± 0.4 mN/m (x1 = 0.9) and 29.4 ± 0.4 mN/m (x1 = 1).
`CCCCOP(=O)([O-])OCCCC.CCCCn1cc[n+](C)c1` [1-butyl-3-methylimidazolium dibutyl phosphate] + O: the surface tension liquid-gas by setting is: (x1 = 0.1) 28.2 ± 0.6 mN/m; (x1 = 0.2) 28.9 ± 0.4 mN/m; (x1 = 0.3) 29 ± 0.4 mN/m; (x1 = 0.4) 29.1 ± 0.4 mN/m; (x1 = 0.5) 29.2 ± 0.4 mN/m; (x1 = 0.6) 29.3 ± 0.4 mN/m. For the same molecule, the surface tension liquid-gas runs as follows: (x1 = 0.7) 29.3 ± 0.4 mN/m; (x1 = 0.8) 29.4 ± 0.4 mN/m; (x1 = 0.9) 29.5 ± 0.4 mN/m; (x1 = 1) 29.4 ± 0.4 mN/m.
On to `CCOP(=O)([O-])OCC.CCn1cc[n+](C)c1` [1-ethyl-3-methylimidazolium diethyl phosphate] + CCO, for which the surface tension liquid-gas by setting is: (x1 = 0.1) 22.6 ± 0.3 mN/m; (x1 = 0.2) 23.6 ± 0.4 mN/m; (x1 = 0.3) 25 ± 0.4 mN/m; (x1 = 0.4) 26.6 ± 0.4 mN/m; (x1 = 0.5) 28.2 ± 0.4 mN/m; (x1 = 0.6) 30.1 ± 0.4 mN/m. The surface tension liquid-gas runs as follows: (x1 = 0.7) 31.6 ± 0.5 mN/m; (x1 = 0.8) 33.2 ± 0.5 mN/m; (x1 = 0.9) 34.8 ± 0.5 mN/m; (x1 = 1) 37.1 ± 0.5 mN/m.
As for `CCOP(=O)([O-])OCC.CCn1cc[n+](C)c1` [1-ethyl-3-methylimidazolium diethyl phosphate] + CO, the surface tension liquid-gas reads like this: (x1 = 0.1) 26.4 ± 0.4 mN/m; (x1 = 0.2) 28.9 ± 0.4 mN/m; (x1 = 0.3) 30.4 ± 0.4 mN/m; (x1 = 0.4) 31.9 ± 0.5 mN/m; (x1 = 0.5) 33.5 ± 0.5 mN/m; (x1 = 0.6) 34.7 ± 0.5 mN/m. Moreover, the surface tension liquid-gas (x1 = 0.7) is 35.3 ± 0.5 mN/m, the surface tension liquid-gas (x1 = 0.8) is 37.2 ± 0.5 mN/m, the surface tension liquid-gas (x1 = 0.9) is given as 37.3 ± 0.5 mN/m and the surface tension liquid-gas (x1 = 1) is 37.1 ± 0.5 mN/m.
